From article PMC3334764, “Effect of fluid loading during hypovolaemic shock on caspofungin pharmacokinetic parameters in pig” (Critical Care, 2011)
Like-named read-outs stand apart in the source and are kept apart here. Marks after values point to notes of the source that are not given here.

How the values were obtained:
[1] = Caspofungin plasma pharmacokinetics in anaesthetised, ventilated pigs (shock vs control); assay type: in vivo; settings: pig, 70 mg one-hour iv infusion; for level at 4 h / AUC(0-t): iv, 70 mg; for level at 4 h: four hours after start of infusion, read-out: Cp (caspofungin plasma concentration at four hours); for AUC(0-t): unit as printed in abstract, read-out: area under curve (AUC) from zero to four hours
Method: (§1) In the shock group (n = 12), the animals were bled through the carotid catheter (Figure 1). Blood withdrawal was started at a rate of 0.8 to 1 mL/kg/minute and continued until all three of the following end points were achieved: MAP of 40 to 45 mmHg, decrease in CI greater than 40% and SVO2 lower than 30%. End points were maintained for a period of 120 minutes by means of further bleeding. During the four-hour resuscitation period, the animals received isotonic saline at a rate of 2 mL/kg/minute. The infusions were stopped when the CI reached 90% of the baseline value and SVO2 was above 50%, and the infusions were then adjusted to keep these parameters constant until the animals were killed. At the beginning of the resuscitation period, the animals received a one-hour intravenous infusion of 70 mg of caspofungin acetate (Cancidas; Merck Sharp & Dohme-Chibret, Paris, France) diluted in 50 mL of saline, which was injected into the right atrium through the proximal lumen of the pulmonary arterial catheter via a pump-driven syringe. A second group of animals (n = 16) used as controls was anaesthetised and ventilated, but they were not subjected to bleeding and fluid loading. These animals were also killed four hours after the start of the caspofungin infusion.
(§2) EDTA-blood samples were drawn through a dedicated arterial catheter just before and 15, 30, 60 and 90 minutes and 2 hours, 3 hours and 4 hours after the caspofungin infusions were started in both groups. Then the animals were immediately killed, and lung tissue samples (2 cm × 2 cm × 2 cm) were surgically removed from nondependent parts of both the lower and upper lobes after sternotomy. Plasma was obtained by blood centrifugation at 1,500 g for 15 minutes. Plasma and lung samples were immediately stored at -80°C. The remaining lung tissues were used for the determination of extravascular lung water indexed to body weight (EVLWI) by using a gravimetric method as previously described. Caspofungin acetate was kindly provided by Merck Sharp & Dohme-Chibret. Plasma and lung caspofungin concentrations were determined by using a validated high-performance liquid chromatography method with fluorescence detection after a solid-phase extraction (Bond Elut™ column; Agilent Technologies, Santa Clara, CA, USA). Caspofungin and the internal standard (IS) propranolol were separated on a LiChrospher column (100 RP-8e (5 μm); Merck Chemicals KGaA, Darmstadt, Germany) using a mobile phase consisting of acetonitrile and 0.1% trifluoroacetic acid buffer (200:300 vol/vol) at a flow rate of 1 mL/minute. The retention times were 6 and 22 minutes for IS and caspofungin, respectively. The linearity range was 0.3 to 7.5 mg/L (r^2 > 0.998). The lower limit of quantification, defined as the lowest concentration that could be determined with a relative error and precision (relative standard deviation) less than 20%, was 0.3 μg/mL. Intraday and interday levels of interassay precision were 1.91% and 4.84% (0.5 μg/mL), 6.94% and 10.4% (3 μg/mL) and 7.84% and 12% (5 μg/mL) for serum samples. The maximal concentration (Cmax) was measured at the end of the infusion.
(§3) The AUC from zero to four hours (AUC0→4 hours) was determined using the trapezoidal rule. The concentration vs time data for both groups were modelled using the population approach method implemented in Monolix version 3.1 release 2 software. A two-compartment mammillary model was developed and parameterised in terms of central volume of distribution of caspofungin (V1) and elimination clearance of caspofungin (CL), peripheral volume of distribution of caspofungin (V2) and intercompartmental clearance of caspofungin (Q). The total apparent volume of distribution of caspofungin (Vd) was calculated as V1 + V2. The interindividual variability (ω) for each parameter and the residual variability of the model (σ) were estimated.

[2] = Lung tissue caspofungin concentration and tissue-to-plasma ratio in pigs; assay type: in vivo; settings: pig
Method: as §1
as §2, with “Intraday and interday levels of interassay precision were 1.91% and 4.84% (0.5 μg/mL), 6.94% and 10.4% (3 μg/mL) and 7.84% and 12% (5 μg/mL) for serum samples.” left out
Lung samples were weighed (200 ± 150 mg), homogenised with a 1.5-mL saline solution, ground for 15 minutes and centrifuged twice at 10,000 rpm for 10 minutes. […] Lung caspofungin concentrations (Ct) were determined four hours after starting the caspofungin infusion and are expressed as micrograms per gram of lung tissue. The tissue-to-plasma ratio for each group was calculated as R = (Ct/Cp) × 100, where Cp is the caspofungin plasma concentration at four hours.

[3] = Two-compartment population pharmacokinetic analysis (Monolix) of plasma caspofungin in pigs; assay type: in vivo; settings: pig; for Q (intercompartmental clearance) / V1 (central volume of distribution) / V2 (peripheral volume of distribution) / clearance: two-compartment population estimate; for clearance: 70 mg one-hour iv infusion, read-out: CL (central elimination clearance) (converted)
Method: as §3

[4] = healthy humans, single dose of 70 mg, cited from earlier work
Method: In the early clinical development program for caspofungin, a target concentration of 1 μg/mL was used as a guide for concentrations likely to be efficacious. This target was determined on the basis of in vitro susceptibility test results and was selected as the concentration that exceeded the minimal inhibitory concentration at which 90% of Candida spp. isolates were inhibited.

[5] = surgical ICU patients; 24-hour trough plasma concentration; cited from earlier work
Description: The pharmacokinetics of caspofungin have been recently studied in a cohort of surgical ICU patients. […] Therefore, the authors concluded that a dose adjustment may be necessary in some ICU patients, based on the monitoring of plasma conc ...

Question: Which results are given for `CC[C@H](C)C[C@H](C)CCCCCCCCC(=O)N[C@H]1C[C@@H](O)[C@@H](NCCN)NC(=O)[C@@H]2[C@@H](O)CCN2C(=O)[C@H]([C@H](O)CCN)NC(=O)[C@H]([C@H](O)[C@@H](O)c2ccc(O)cc2)NC(=O)[C@@H]2C[C@@H](O)CN2C(=O)[C@H]([C@@H](C)O)NC1=O` [caspofungin, caspofungin acetate]?
Answer: Cmax (maximum caspofungin plasma concentration) ([1]; control group (n = 16), no haemorrhage, measured at end of infusion, HPLC with fluorescence detection, median): 33100 ng/mL; level at 4 h ([1]; plasma, control group (n = 16), median): 20700 ng/mL; AUC(0-t) ([1]; plasma, control group, median): 80800 ng·h/mL; level at 4 h ([1]; plasma, shock group (n = 12), median): 16100 ng/mL; AUC(0-t) ([1]; plasma, shock group, median): 60300 ng·h/mL; median AUC0→4 hours lower in the shock group than in the control group ([1]; shock vs control group): 25%; median maximal plasma concentration lower in the shock group than in the control group ([1]; shock vs control group): 35%; Cmax ([1]; plasma, shock group (n = 12), hypovolaemic shock then saline fluid loading, measured at end of infusion, HPLC with fluorescence detection, median, read-out: Cmax (maximum caspofungin plasma concentration)): 21600 ng/mL; Ct (lung caspofungin concentration at four hours) ([2]; control group (n = 16), 70 mg one-hour iv infusion, lung homogenate, four sampled lobes averaged, HPLC with fluorescence detection, median): 1.64 µg/g; Ratio = (Ct/Cp) × 100 (lung tissue-to-plasma ratio) ([2]; control group (n = 16), four hours after start of infusion, median): 7.28%; tissue level at time at 4 h ([2]; shock group (n = 12), 70 mg one-hour iv infusion, lung homogenate, four sampled lobes averaged, HPLC with fluorescence detection, median, read-out: Ct (lung caspofungin concentration at four hours)): 1220 ng/g; Ratio = (Ct/Cp) × 100 (lung tissue-to-plasma ratio) ([2]; shock group (n = 12), four hours after start of infusion, median): 7.76%; median lung caspofungin concentration lower in the shock group than in the control group ([2]; shock vs control group, four hours after start of infusion): 25%; Q (intercompartmental clearance) ([3]; control group (n = 16)): 4.23 L/h; V1 (central volume of distribution) ([3]; control group (n = 16)): 0.98 L; V2 (peripheral volume of distribution) ([3]; control group (n = 16)): 1.43 L; clearance ([3]; plasma, iv, 70 mg, control group (n = 16)): 4.83 mL/min; clearance ([3]; plasma, iv, 70 mg, shock group (n = 12)): 3.5 mL/min; Q (intercompartmental clearance) ([3]; shock group (n = 12)): 8.16* L/hour; V1 (central volume of distribution) ([3]; shock group (n = 12)): 0.96 L; V2 (peripheral volume of distribution) ([3]; shock group (n = 12)): 2.8* L; Vd ([3]; plasma, iv, 70 mg, shock group (n = 12), calculated as V1 + V2, read-out: Vd (total apparent volume of distribution)): 3.9 L; concentration at 24 hours (trough concentration) ([4]; mean (95% confidence interval, 1.18 to 1.71)): 1420 ng/mL; mean plasma Cmax ([4]; mean (95% confidence interval, 10.87 to 13.33)): 12040 ng/mL; patients in whom the trough concentration at day 2 of treatment exceeded 1.0 μg/mL [5]: 75%
